Laboratory results taken from the NIST ThermoML archive (doi:10.1021/je100313a).
“And” between values parts separate entries of the source, which are not always exact repeats. Equal values may be shown once.

Legend:
[1] = 101 kPa, Liquid
[2] = xn = mol fraction of the nth substance listed; details: 101 kPa, Liquid

C1C[C@@H]2[C@H]3CC[C@H](C3)[C@@H]2C1 [exo-tetrahydrodicyclopentadiene]
[1]
Details	mass density [kg/m3]	viscosity
293.15 K	935.3	3.076 mPa·s and 3.077 mPa·s
298.15 K	931.4	2.784 mPa·s
303.15 K	927.5	2.525 mPa·s
313.15 K	919.6	2.112 mPa·s

CCCCCCCCCCC [undecane] + C1C[C@@H]2[C@H]3CC[C@H](C3)[C@@H]2C1
[2], x1 = 1
Details	mass density [kg/m3]	viscosity [mPa·s]
293.15 K	740.4	1.199
298.15 K	736.7	1.099
303.15 K	733	1.022
313.15 K	725.6	0.878

CCCCCCCCCCCCCC [tetradecane] + C1C[C@@H]2[C@H]3CC[C@H](C3)[C@@H]2C1
[2], x1 = 1
Details	mass density [kg/m3]	viscosity [mPa·s]
293.15 K	762.9	2.346
298.15 K	759.2	2.107
303.15 K	755.7	1.897
313.15 K	748.6	1.594

CCCCCCCCCCCCCC [tetradecane]
[1]
Details	mass density [kg/m3]	viscosity [mPa·s]
293.15 K	762.9	2.346
298.15 K	759.2	2.107
303.15 K	755.7	1.897
313.15 K	748.6	1.594

C1C[C@@H]2[C@H]3CC[C@H](C3)[C@@H]2C1 [exo-tetrahydrodicyclopentadiene] + CCCCCCCCCCC
[2]
Details	mass density, 293.15 K [kg/m3]	mass density, 298.15 K [kg/m3]	mass density, 303.15 K [kg/m3]	mass density, 313.15 K [kg/m3]	viscosity, 293.15 K [mPa·s]	viscosity, 298.15 K [mPa·s]	viscosity, 303.15 K [mPa·s]	viscosity, 313.15 K [mPa·s]
x2 = 0	935.3	931.4	927.5	919.6	3.076	2.784	2.525	2.112
x2 = 0.0881	911.7	907.8	903.9	896.1	2.697	2.439	2.228	1.856
x2 = 0.1777	889.3	885.4	881.6	873.8	2.39	2.162	1.982	1.662
x2 = 0.2711	867.6	863.7	859.9	852.1	2.135	1.937	1.78	1.499
x2 = 0.3669	846.8	843	839.2	831.5	1.921	1.751	1.615	1.362
x2 = 0.4654	827	823.1	819.3	811.7	1.747	1.594	1.47	1.246
x2 = 0.5658	808.2	804.4	800.6	793	1.608	1.47	1.359	1.158
x2 = 0.6685	790.3	786.6	782.8	775.2	1.483	1.358	1.256	1.074
x2 = 0.778	772.6	768.9	765.2	757.7	1.373	1.259	1.167	1
x2 = 0.8855	756.5	752.7	749	741.6	1.284	1.177	1.093	0.941

CCCCCCCCCCC [undecane]
[1]
Details	mass density [kg/m3]	viscosity [mPa·s]
293.15 K	740.4	1.199
298.15 K	736.7	1.099
303.15 K	733	1.022
313.15 K	725.6	0.878

C1C[C@@H]2[C@H]3CC[C@H](C3)[C@@H]2C1 [exo-tetrahydrodicyclopentadiene] + CCCCCCCCCCCCCC
[2]
Details	mass density, 293.15 K [kg/m3]	mass density, 298.15 K [kg/m3]	mass density, 303.15 K [kg/m3]	mass density, 313.15 K [kg/m3]	viscosity, 293.15 K [mPa·s]	viscosity, 298.15 K [mPa·s]	viscosity, 303.15 K [mPa·s]	viscosity, 313.15 K [mPa·s]
x2 = 0	935.3	931.4	927.5	919.6	3.077	2.784	2.525	2.112
x2 = 0.0703	914.6	910.8	906.9	899.2	2.961	2.679	2.429	2.034
x2 = 0.1451	894.8	891	887.1	879.5	2.857	2.582	2.343	1.958
x2 = 0.2274	875.5	871.7	868	860.4	2.766	2.496	2.259	1.888
x2 = 0.2692	866.5	862.7	859	851.4	2.724	2.456	2.223	1.857
x2 = 0.4088	839.5	835.8	832.1	824.7	2.609	2.35	2.125	1.777
x2 = 0.5067	823.2	819.5	815.9	808.5	2.544	2.291	2.072	1.734
x2 = 0.616	807	803.4	799.8	792.5	2.487	2.243	2.028	1.698
x2 = 0.7324	791.7	788.2	784.6	777.4	2.438	2.197	1.983	1.663
x2 = 0.8606	776.9	773.4	769.8	762.7	2.39	2.151	1.94	1.629
